Source: patent US8765184B2 (Stanipharm, priority 2009, dated 2014)

Assay: Stability of the active substance throughout the process by high performance liquid chromatography
Type: physicochemical
Conditions: HPLC; purity/titre and related substance profile compared with the starting product, both tests

Compound: CO[C@H]1C[C@@H]2CC[C@@H](C)[C@@](O)(O2)C(=O)C(=O)N2CCCC[C@H]2C(=O)O[C@H]([C@H](C)C[C@@H]2CC[C@@H](O)[C@H](OC)C2)CC(=O)[C@H](C)/C=C(\C)[C@@H](O)[C@@H](OC)C(=O)[C@H](C)C[C@H](C)/C=C/C=C/C=C/1C [sirolimus]
- stability throughout the process: good stability
